Patent US20180344199A1, “OPTIMIZED PLACEMENT OF CANNULA FOR DELIVERY OF THERAPEUTICS TO THE BRAIN” (The Regents of the University of California, priority 2010, published 2018)
Several values for one entry are separate records, joined by “and”; a condition that tells them apart may be missing. Identical values can stand only once.

What was measured:
[1] = CED infusion of GDL or free Gadoteridol into NHP putamen, real-time MRI distribution; type: in vivo, Rhesus macaques and Cynomolgus monkeys
Procedure: Thirteen normal adult NHP, including 11 Rhesus macaques (7 male and 4 female, aged from 8 to 18 years; mean age 11.9 years, weight 4-9.4 kg) and 2 Cynomolgus monkeys (one male and one female, age 7 years for both; weight 5 and 7 kg respectively) were the subjects in the present study. Experimentation was performed according to the National Institutes of Health guidelines and to the protocols approved by the Institutional Animal Care and Use Committee at the University of California San Francisco (San Francisco, Calif.) and at Valley Biosystems (Sacramento, Calif.). Thirteen animals received a total of 25 intracranial infusion of GDL (2 mM) or free Gadoteridol (2 mM, Prohance; Bracco Diagnostics, Princeton, N.J.) into the putamen. Infusions were performed by previously established CED techniques for NHP (Bankiewicz, Eberling et al. 2000). GDL were prepared as previously described (Fiandaca, Varenika et al. 2008) (Krauze, McKnight et al. 2005).
Primates received a baseline MRI before surgery to visualize anatomical landmarks and to generate stereotactic coordinates of the proposed target infusion sites for each animals. NHPs underwent neurosurgical procedures to position the MRI-compatible guide cannula over the putamen. Each customized guide cannula was cut to a specified length, stereotactically guided to its target through a burr-hole created in the skull, and secured to the skull by dental acrylic. The tops of the guide cannula assemblies were capped with stylet screws for simple access during the infusion procedure. Animals recovered for at least 2 weeks before initiation of infusion procedures. Animals were anesthetized with isoflurane (Aerrane; Ohmeda Pharmaceutical Products Division, Liberty Corner, N.J.) during real-time MRI acquisition. Each animal's head was placed in an MRI-compatible stereotactic frame, and a baseline MRI was performed. Vital signs, such as heart rate and PO2, were monitored throughout the procedure.
Briefly, the infusion system consisted of a fused silica reflux-resistant cannula (Fiandaca, Varenika et al. 2008) (Krauze, McKnight et al. 2005) that was connected to a loading line (containing GDL or free Gadoteridol), an infusion line with oil, and another infusion line with trypan blue solution. A 1-ml syringe (filled trypan blue solution) mounted onto a micro-infusion pump (BeeHive, Bioanalytical System, West Lafayette, Ind.), regulated the flow of fluid through the system. Based on MRI coordinates, the cannula was mounted onto a stereotactic holder and manually guided to the targeted region of the brain through the previously placed guide cannula. The length of each infusion cannula was measured to ensure that the distal tip extended 3 mm beyond the length of the respective guide. This created a stepped design at the tip of the cannula to maximize fluid distribution during CED procedures and minimize reflux along the cannula tract. We refer to this transition from fused silica tip to a fused silica sheath as the “step”, and all positioning data is derived from the position of this step because of its unambiguous visibility on MRI.
After securing placement of the infusion cannula, the CED procedures were initiated with real-time MRI data being acquired (real-time convective delivery, RCD). We used the same infusion parameters for every NHP infused throughout the study. Infusion rates were as follows: 0.1 μl/min was applied when lowering cannula to targeted area and increased at 10-min intervals to 0.2, 0.5, 0.8, 1.0, and 2.0 μl/min. Approximately 15 min after infusion, the cannula was withdrawn from the brain. Four animals received multiple infusions. Each animal had at least a 4-week interval between each infusion procedure.
NHPs were sedated with a mixture of ketamine (Ketaset, 7 mg/kg, IM) and xylazine (Rompun, 3 mg/kg, IM). After sedation, each animal was placed in a MRI-compatible stereotactic frame. The ear-bar and eye-bar measurements were recorded, and an intravenous line was established. […]

[2] = CED infusion of gadoteridol into NHP thalamus, real-time MRI distribution; type: in vivo, Cynomolgus monkeys and Rhesus macaques
[3] = CED infusion of gadoteridol into NHP brainstem, real-time MRI distribution; type: in vivo, Cynomolgus monkeys and Rhesus macaques
[4] = CED co-infusion of AAV2 vectors and Gd into NHP thalamus, MRI volume of Gd distribution; conditions: co-infused with AAV2-GDNF, Vi ~150 μL, n=5, mean±SEM
[5] = 6 cases, good distribution with leakage

CC(O)CN1CCN(CC(=O)[O-])CCN(CC(=O)[O-])CCN(CC(=O)[O-])CC1.[Gd+3] (centres unmarked) [Gadoteridol]
final Vd in WMT, mean volume ([1]; blue zone, 4 cases): 19.4±0.01 mm3 | infusion volume when leakage was first seen, mean ([1]; blue zone, 4 cases): 6.9 ± 0.9 µL | final Vd in WMT, mean volume ([1]; red zone, 13 cases): 66.8±0.01 mm^3 | infusion volume when leakage was first seen, mean ([1]; red zone, 13 cases): 7.9 ± 1.7 µL | Vd in the putamen, mean volume ([1]; step in blue zone, 4 cases): 139.6±0.05 mm^3 | Vd in the putamen, mean volume ([1]; step in green zone, 8 cases): 116.4±0.04 mm^3 | Vd (putamen), mean volume ([1]; step in red zone, 13 cases): 62.1±0.01 mm3 | Vd in the thalamus, mean volume [2, 5]: 191.3±38.1 mm^3 | percent of Vd in the thalamus, mean [2, 5]: 89.0%±1.3% | Vd of leakage, mean volume ([2]; 6 cases, leakage into WMT / lenticular fasciculus): 24.3±7.0 mm^3 | Vd in the thalamus, mean volume ([2]; 8 cases with excellent distribution): 405.6±66.6 mm^3 | percent of Vd in the thalamus vs total Vd in thalamus and WMT ([2]; all 8 cases with excellent distribution): 100% | maximum distribution ([2]; thalamus, for Vi 158 μl): around 660.3 mm^3 | distribution ratio ([2]; thalamus, maximum distribution at Vi 158 μl): 417.9% | Vd in the brainstem, mean volume ([3]; 8 infusions): 585.2±75.4 mm^3 | percent of Vd in the brainstem vs total Vd in brainstem and thalamus ([3]; 100% in 7 cases, 95.6% in one case, listed as Gd): 100% and 95.6% | maximum distribution ([3]; brainstem, for Vi 212 μl): around 695.6 mm^3 | distribution ratio ([3]; brainstem, maximum distribution at Vi 212 μl): 328.1% | Vd in thalamus (leakage) ([3]; one brainstem case with leakage into thalamus at end of infusion): 30.5 mm^3 | ratio of Vd/Vi, mean [4]: 4.68±0.33
